{"source": "patent US20200405727A1", "about": "“NEW ALK INHIBITOR SENOLYTIC DRUGS” (FONDAZIONE PER L'ISTITUTO ONCOLOGICO DI RICERCA (IOR), priority 2018, published 2020)", "key": {"[1]": {"system": "non-senescent (NS) MEFs", "test": "Replicative senescence assay in MEFs, non-senescent cells", "format": "cell-based, murine", "settings": "10 μM, Crystal Violet and SA-β-Gal", "experimental": "(§1) The senolytic activity of Alectinib was validated in the context of the replicative senescence: assay which mimes the natural process of cell ageing due to the shortening of telomers. The MEFs were seeded in 10 cm2-plates (3×10^5 cells/plate). Every 3 days these cells were detached by means of trypsin, counted with Trypan Blu and plated in the same number. This process was performed for 8 passages before starting the senolytic treatment. At passages 8 and 9 the senescence of these cells was tested by means of the assay of SA-β-Gal (about 78% of senescent cells).\n(§2) At passage 8, the non-senescent cells (NS) and cells in replicative senescence (RS) were seeded in a 96-well plate (5000 cells/well) and treated at different concentrations of Alectinib."}, "[2]": {"system": "MEF wt (NS)", "test": "Senolytic screening, specificity on non-senescent MEF wt", "format": "cell-based, murine", "settings": "10 μM, 48 hours; versus ABT-263", "experimental": "(§3) The platform which was devised in our laboratory is capable of identifying the senolytic compounds based upon two parameters: (1) the inhibition of the cell viability and (2) the removal of the positive cells to the assay of β-Galactosidase (SA-β-Gal, senescence marker). As positive control of the compounds at the test stage, we included ABT-263, previously identified as senolytic compound 2. At last, the senolytic potentiality of these compounds is tested on murine embryonic fibroblasts (MEF) Pten−/− and WT.\n(§4) Technically the screening was performed in three passages; • Before treatment, to the culture medium of MEF (DMEM, 10%FBS, 5% P/S) Docetaxel is added, at the concentration of 750 nM for 48 hours. […] The cells were seeded in a 96-well plate at a density of 5000 cells per well. In the more external wells PBS was added, so as to be able to maintain the correct humidity inside the plate. • At last, 24 hours after the seeding of cells, the compounds of our study were added to the cells for 48 hours at the concentration of 10 μM. […]"}, "[3]": {"system": "PC3", "test": "Removal of Palbociclib-induced senescent PC3 prostate cancer cells, Crystal Violet and SA-β-Gal", "format": "cell-based, human", "settings": "5 μM for 48 hours, senescence induced with Palbociclib", "experimental": "(§5) Subsequently we tested the effects of Alectinib on cancer cell lines pre-treated with stimulator of senescence. In the specific case we used TrampC1 and PC3, two cell lines of prostate cancer, respectively murine and human lines. With the purpose of inducing the senescence in these cells, we used Palbociclib, a specific inhibitor of […] currently used in clinic in the treatment of breast cancer. Once the cells started senescence, Alectinib was added to the culture medium at the concentration of 5 μM for 48 hours."}, "[4]": {"system": "IMR90 in replicative senescence (RS)", "test": "Replicative senescence assay in human fibroblasts IMR90, Crystal Violet and SA-β-Gal", "format": "cell-based", "settings": "2.5 μM, passage 33, Crystal Violet and SA-β-Gal", "experimental": "(§6) This assay was validated even with human fibroblasts, IMR90. Analogously to the protocol used for the MEFs, the IMR90 were seeded in 10 cm2-wide plates (3×10^5 cells/plate). Every 3 days these cells were detached by means of trypsin, counted with Trypan Blu and plated in the same number. This process was performed for 33 passages before starting the senolytic treatment. At passages 33 and 34 the senescence of these cells was tested by means of the assay of SA-β-Gal (about 78% of senescent cells).\n(§7) At passage 33 non-senescent (NS) cells and cells in replicative senescence (RS) were seeded in a 96-well plate (5000 cells/well) and treated with different concentrations of Alectinib."}, "[5]": {"system": "TrampC1", "test": "Removal of Palbociclib-induced senescent TrampC1 prostate cancer cells, Crystal Violet and SA-β-Gal", "format": "cell-based, murine", "settings": "5 μM for 48 hours, senescence induced with Palbociclib", "experimental": "as §5"}, "[6]": {"system": "MEF Pten−/− (PICS)", "test": "Senolytic screening in PICS (Docetaxel-induced senescent MEF Pten−/−), cell viability and SA-β-Gal", "format": "cell-based, murine", "settings": "10 μM, 48 hours, MEF Pten−/− pre-treated with Docetaxel 750 nM; versus ABT-263 positive control", "experimental": "as §3, §4"}, "[7]": {"system": "MEFs in replicative senescence (RS)", "test": "Replicative senescence assay in MEFs, Crystal Violet and SA-β-Gal", "format": "cell-based, murine", "settings": "10 μM, passage 8, Crystal Violet and SA-β-Gal", "experimental": "as §1, §2"}, "[8]": {"system": "non-senescent (NS) IMR90", "test": "Replicative senescence assay in IMR90, non-senescent cells", "format": "cell-based, human", "settings": "2.5 μM, Crystal Violet and SA-β-Gal", "experimental": "as §6, §7"}, "[9]": {"system": "MEF WT", "test": "Effect of Docetaxel on cell cycle of MEF WT", "format": "cell-based, murine", "settings": "750 nM for 48 hours", "experimental": "(§8) Technically the screening was performed in three passages; • Before treatment, to the culture medium of MEF (DMEM, 10%FBS, 5% P/S) Docetaxel is added, at the concentration of 750 nM for 48 hours. […] The cells were seeded in a 96-well plate at a density of 5000 cells per well. In the more external wells PBS was added, so as to be able to maintain the correct humidity inside the plate. • At last, 24 hours after the seeding of cells, the compounds of our study were added to the cells for 48 hours at the concentration of 10 μM."}, "[10]": {"system": "MEF Pten−/−", "test": "Induction of senescence in MEF Pten−/− by Docetaxel", "format": "cell-based, murine", "settings": "750 nM for 48 hours", "experimental": "as §8"}}, "note": "“Also recorded” adds a separate entry of the source.", "data": [{"compound": "CCc1cc2c(cc1N1CCC(N3CCOCC3)CC1)C(C)(C)c1[nH]c3cc(C#N)ccc3c1C2=O", "note": "[Alectinib]", "values": [{"measurement": "impact on NS cells (MEFs)", "setting": "[1]", "result": "without killing the non-senescent (NS) cells; also recorded: without impacting on the cells NS"}, {"measurement": "selectivity: impact on MEF wt (NS)", "setting": "[2]", "result": "non-senescent, NS, cells are kept vital; also recorded: more selective by impacting less seriously on MEF wt (NS)"}, {"measurement": "removal of senescent cells (PC3)", "setting": "[3]", "result": "capability of removing the senescent cells in both cell lines; also recorded: capable of removing successfully the senescent cells"}, {"measurement": "removal of senescent cells (RS IMR90)", "setting": "[4]", "result": "capable of removing the senescent cells"}, {"measurement": "removal of senescent cells (TrampC1)", "setting": "[5]", "result": "capability of removing the senescent cells in both cell lines; also recorded: capable of removing successfully the senescent cells"}, {"measurement": "removal of senescent cells (PICS)", "setting": "[6]", "result": "strong capability in killing the PICS cells; also recorded: effectiveness comparable to ABT-263"}, {"measurement": "removal of senescent cells (RS MEFs)", "setting": "[7]", "result": "capable of removing the senescent cells"}, {"measurement": "impact on NS cells (IMR90)", "setting": "[8]", "result": "without killing the non-senescent (NS) cells; also recorded: without impacting on the NS cells"}]}, {"compound": "CC(=O)O[C@@]12CO[C@@H]1C[C@H](O)[C@@]1(C)C(=O)[C@H](O)C3=C(C)[C@@H](OC(=O)[C@H](O)[C@@H](NC(=O)OC(C)(C)C)c4ccccc4)C[C@@](O)([C@@H](OC(=O)c4ccccc4)[C@H]21)C3(C)C", "note": "[Docetaxel]", "values": [{"measurement": "cell cycle of MEF WT", "setting": "[9]", "result": "without altering the cell cycle of MEF WT"}, {"measurement": "senescence of MEF Pten−/−", "setting": "[10]", "result": 80, "unit": "%"}]}]}
